Legend:
Jurkat cells [1] = test: Caspase 3 activity (apoptosis) in Jurkat cells after storage under xenon pressure; assay type: cell-based; conditions: 4 Atm excessive pressure of gas comprising xenon, 24 hrs of storage, with and without doxorubicin
U-937 cells = test: JC-1 staining of U-937 cells with flow cytometry (state of mitochondria, apoptosis) after storage under xenon; assay type: cell-based, human
Procedure: In order to obtain the data presented in these Examples, Leukemic monocyte lymphoma cells U-937 were grown in RPMI-1640 medium supplied with 15% fetal bovine serum and 10 mkg/ml gentamicin in the atmosphere of 5% CO2 at 37° C. Petri dishes containing the cell culture in exponential phase of growth were placed into a holding rack and transferred into containers having an inner volume of approximately 1.5 L which were designed for storage in hyperbaric conditions. The mixture of gases Xe—CO2 (95% and 5% respectively) was used for buildup of pressure of 0.5 to 4.0 Atm above ambient pressure over a period of 5-10 minutes, with particular parameters presented in connection with the Figures presented herein. The temperature was held from 22° C. to 37° C. in this embodiment of the invention Gases were mixed in a separate tank (or in the container/tube) based on calculation of their partial pressure. The container with Petri dishes was kept at this temperature and pressure for 2 hrs. Then the container was transferred to a refrigerator with decreased temperature (from 0.1° C. to +5° C.), while maintaining the pressure. The container was held at under these conditions for approximately 4 weeks. After that, the pressure was released and the container holding the cells was kept for 7 days in a household at a temperature of +4° C. to +10° C. and atmospheric pressure.
Accordingly, these cells respond to a large number of both extracellular and intracellular proapoptotic signals and have been used as model cells for analyzing apoptosis (Pimentel-Muiños F X, Seed B. Regulated commitment of TNF receptor signaling: a molecular switch for death or activation. Immunity. 1999 December; 11 (6):783-93; Karas M, Zaks T Z, Liu J L, LeRoith D. T cell receptor-induced activation and apoptosis in cycling human T cells occur throughout the cell cycle. Mol Biol Cell. 1999 December; 10 (12):4441-50; Valavanis C, Hu Y, Yang Y, Osborne B A, Chouaib S, Greene L, Ashwell J D, Schwartz L M. Model cell lines for the study of apoptosis in vitro. Methods Cell Biol. 2001; 66:417-36).

Jurkat cells [2] = test: Live Jurkat cell count (trypan blue) after transfer from storage to standard cultivation conditions; assay type: cell-based; conditions: 24 hrs under standard conditions (37° C., 5% CO2) after storage, Xe+37 doxo and Xe+4 doxo vs control, FIG. 3

`[Xe]` [xenon] was tested, and the “development of spontaneous and induced (Doxo) apoptosis, caspase 3 activity” value (Jurkat cells [1]; FIG. 4) was “prevented development of both spontaneous (series no Doxo in the diagram) and induced (series Doxo in the diagram) apoptosis”, the “development of spontaneous and induced (Doxo) apoptosis, caspase 3 activity” value (Jurkat cells [1]; FIG. 4, listed as Xenon) was “prevented development of both spontaneous (no Doxo and non-treated) and induced (Doxo) apoptosis” and the “development of spontaneous and induced (Doxo) apoptosis” value (U-937 cells; 4 Atm over ambient pressure Xe, with and without doxorubicin, FIG. 5) was “prevented development of both spontaneous (no Doxo and non-treated) and induced (Doxo) apoptosis”. The “damage of mitochondria compared to control” value (U-937 cells; JC-1, after 7 days of storage, control = no gas, 37° C.) was “significantly decreased damage of mitochondria”, the “percentage of doxorubicin-treated cells with undamaged mitochondria” value (U-937 cells; JC-1, vs cells stored without xenon, after 24 hrs and 7 days of storage, FIG. 5) was “significantly higher” and the “action on cellular mitochondria” value (U-937 cells; xenon both in combination with cooling and without cooling) was “exerted protective action on cellular mitochondria”. For the same compound, the “cell growth (number of live cells) after exposure to doxorubicin” value (Jurkat cells [2]) was “improved cell growth after exposure to doxorubicin”.

Source: US10098340B2, “Method for preserving cells and cell cultures” (Rich Technologies Holding Company, LLC, priority 2011, dated 2018)
